Drawing on ChEMBL document CHEMBL1134810, “G-quadruplex DNA binding by a series of carbocyanine dyes” (Bioorg Med Chem Lett, 2001), this text covers Activity and inhibition for five molecules.

As usually defined, the inhibition is the percentage by which the read-out fell short of the control. Lower therefore signals a response near the control.

For assay [1], the target named is DNA polymerase I, thermostable (Thermus aquaticus) (UniProt P19821). Description: G4'-DNA binding-dependent Taq polymerase pausing is the ratio of pause/full bands at 20 uM carbocyanine concentration relative to control; expressed as Normalized ratio of G4'-DNA stop product.
Assay [2] shares this target. Description: Taq polymerase inhibition at […] concentration. The settings on record: 20 uM.
The target in assay [3] is Telomerase reverse transcriptase (Homo sapiens) (UniProt O14746). Description: Inhibition of human telomerase activity in S100 HeLa cell extract at […] carbocyanine concentration. It is filed as cell-free.
Chain of Telomerase reverse transcriptase (Homo sapiens) (O14746 whole entry): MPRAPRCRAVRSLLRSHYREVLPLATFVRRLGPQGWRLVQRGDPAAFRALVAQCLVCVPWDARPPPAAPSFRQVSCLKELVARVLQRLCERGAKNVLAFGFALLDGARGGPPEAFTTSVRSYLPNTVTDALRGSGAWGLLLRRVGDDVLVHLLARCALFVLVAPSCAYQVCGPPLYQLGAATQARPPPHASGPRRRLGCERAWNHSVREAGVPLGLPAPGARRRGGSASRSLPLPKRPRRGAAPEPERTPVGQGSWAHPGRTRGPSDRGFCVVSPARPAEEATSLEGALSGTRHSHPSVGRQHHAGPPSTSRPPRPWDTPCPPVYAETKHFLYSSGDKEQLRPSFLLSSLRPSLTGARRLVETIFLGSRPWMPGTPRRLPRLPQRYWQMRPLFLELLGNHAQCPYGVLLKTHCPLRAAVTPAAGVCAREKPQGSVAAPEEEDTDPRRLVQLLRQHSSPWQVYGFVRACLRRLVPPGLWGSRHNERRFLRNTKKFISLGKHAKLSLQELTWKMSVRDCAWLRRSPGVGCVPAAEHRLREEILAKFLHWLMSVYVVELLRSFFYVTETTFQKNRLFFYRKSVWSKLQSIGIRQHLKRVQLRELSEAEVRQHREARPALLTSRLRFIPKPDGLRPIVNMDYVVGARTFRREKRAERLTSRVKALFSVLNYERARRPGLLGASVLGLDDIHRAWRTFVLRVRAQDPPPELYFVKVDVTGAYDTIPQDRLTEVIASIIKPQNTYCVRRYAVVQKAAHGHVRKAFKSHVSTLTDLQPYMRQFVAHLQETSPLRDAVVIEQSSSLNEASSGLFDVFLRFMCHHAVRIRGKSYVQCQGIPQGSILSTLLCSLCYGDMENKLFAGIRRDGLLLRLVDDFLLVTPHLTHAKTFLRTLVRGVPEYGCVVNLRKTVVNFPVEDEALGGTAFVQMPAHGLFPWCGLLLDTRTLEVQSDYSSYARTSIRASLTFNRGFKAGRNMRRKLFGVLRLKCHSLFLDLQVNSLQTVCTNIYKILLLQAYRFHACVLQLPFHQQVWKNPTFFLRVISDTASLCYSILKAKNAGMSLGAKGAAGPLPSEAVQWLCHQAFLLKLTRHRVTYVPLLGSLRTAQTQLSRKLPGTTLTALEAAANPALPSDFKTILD

Chain of DNA polymerase I, thermostable (Thermus aquaticus) (P19821 whole entry): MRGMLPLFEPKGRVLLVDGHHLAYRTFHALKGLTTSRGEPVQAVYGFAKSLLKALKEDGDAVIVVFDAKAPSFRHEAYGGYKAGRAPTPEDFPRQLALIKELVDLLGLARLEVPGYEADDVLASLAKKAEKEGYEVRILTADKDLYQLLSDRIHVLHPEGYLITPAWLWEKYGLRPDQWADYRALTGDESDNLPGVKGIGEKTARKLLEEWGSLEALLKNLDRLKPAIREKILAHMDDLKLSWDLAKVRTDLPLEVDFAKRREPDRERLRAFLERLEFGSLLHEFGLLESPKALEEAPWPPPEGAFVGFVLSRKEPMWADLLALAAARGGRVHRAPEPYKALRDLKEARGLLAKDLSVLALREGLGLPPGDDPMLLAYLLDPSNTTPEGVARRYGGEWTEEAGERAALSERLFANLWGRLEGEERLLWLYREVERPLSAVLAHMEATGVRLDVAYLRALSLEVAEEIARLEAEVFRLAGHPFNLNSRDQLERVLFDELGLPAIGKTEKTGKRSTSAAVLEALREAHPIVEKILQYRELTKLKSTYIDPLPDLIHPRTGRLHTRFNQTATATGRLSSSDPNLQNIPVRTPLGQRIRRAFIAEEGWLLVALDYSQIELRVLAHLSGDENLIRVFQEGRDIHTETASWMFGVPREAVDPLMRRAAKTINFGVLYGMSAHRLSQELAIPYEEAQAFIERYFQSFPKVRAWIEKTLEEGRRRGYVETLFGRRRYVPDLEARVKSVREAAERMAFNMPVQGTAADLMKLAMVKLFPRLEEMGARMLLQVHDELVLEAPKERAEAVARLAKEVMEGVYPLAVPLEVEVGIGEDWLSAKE

Turning to `CCN1/C(=C/C=C/c2sc3ccccc3[n+]2CC)Sc2ccccc21`, the Activity in assay [1] amounted to 4.4. For the same molecule, the results for the inhibition in assay [2] and in assay [3] were 14% and 35%, respectively.
For `CCN1/C(=C/C=C/c2oc3ccccc3[n+]2CC)Oc2ccccc21`, in that order: 0.9, 15% and < 10%.
As to `CCN1C(=CC=CC=Cc2sc3ccccc3[n+]2CC)Sc2ccccc21`, the results for the inhibition in assay [2] and in assay [3] were 91% and < 10%, respectively.
For `CCN1/C(=C/C=C/C=C/c2oc3ccccc3[n+]2CC)Oc2ccccc21`, the Activity in assay [1] stood at 1.6. In addition, the inhibition was 27% in assay [2] and < 10% in assay [3].
`CCN1/C(=C/C=C/C=C/C=C/c2sc3ccccc3[n+]2CC)Sc2ccccc21`: in assay [1], the Activity is 1.1. The inhibition in assay [2] was 1.1%; in assay [3] it was < 10%.
